Assay results from patent US20090263356A1, “ANTI-ANGIOGENIC COMPOSITION COMPRISING GRAIN-DERIVED COMPONENT AS ACTIVE INGREDIENT” (SANWA SHURUI CO., LTD., priority 2005, published 2009).

How the values were obtained:
[1] = tested on: Human vascular endothelial cells and fibroblasts (co-culture); assay: Experiment on vascularization inhibition (lumen formation, KURABO kit), Experiments 2 and 5; type: cell-based; settings: Suramin 50 μM final, VEGF-A 5 ng/ml, 11-day culturing
Protocol: (§1) 1,000 μg of each specimen was weighed and dissolved in 1 ml of a culture medium. The resulting culture medium was sterilized by filtration (0.22 μm), diluted 10 fold (three times), to prepare samples at concentrations of 10 μg/ml to 1,000 μg/ml.
Human vascular endothelial cells and fibroblasts were co-cultured at their optimal concentrations. At the proliferation state at an early stage of luminal formation, the individual samples were added for 11-day culturing (the culture media containing the samples were exchanged 4, 7 and 9 days later). […] As standards for the evaluation, VEGF-A promoting luminal formation was added at […], while suramin inhibiting luminal formation was added at 50 μM, in the same manner. A control was prepared without any addition. Regarding the effect on inhibiting vascularization, the formed lumen-like network structure was evaluated.
Method: A kit manufactured by KURABO was used for measurement. […] VEGF as a vascularization promoting factor and suramin as an agent for suppressing vascularization were concurrently present in a control, so as to compare the lumen formation state in the co-existence of VEGF and each sample.
Concentration of a sample added: 10, 100 and 1,000 μg/ml (Suramin was added in all of the cases at the same concentration; 50 μM)
VEGF-A as a vascularization-promoting factor was added at an amount of 5 ng/ml (as the final concentration) Suramin as a positive control with an observed effect on inhibiting vascularization was added at an amount of 50 μM (as the final concentration)
1,000 μg of each specimen was weighed and dissolved in 1 ml of a culture medium. The resulting culture medium was sterilized by filtration (0.22 μm) and diluted 10 fold (three times), to prepare samples at concentrations of 10 μg/ml to 1,000 μg/ml.
Concentration of a sample added: 10, 100 and 1000 μg/ml (Suramin was added in all of the cases at the same concentration; 50 μM)

[2] = tested on: Human vascular endothelial cells and fibroblasts (co-culture); assay: Experiment on vascularization inhibition (luminal formation), Experiments 1 and 4; type: cell-based; settings: suramin 25 μM final, VEGF-A 5 ng/ml, 11-day culturing; for AREA (area of vascular tube region): smaller = larger inhibition
Protocol: as §1, with “μg/ml as shown in Table 1 (the contents of the test samples for use in assessing the effect on inhibiting vascularization).” for “μg/ml.”
(§2) Human vascular endothelial cells and fibroblasts were co-cultured at their optimal concentrations. At the proliferation state at an early stage of luminal formation, the individual samples (1-1-1, the negative controls, the positive controls) were added for 11-day culturing (the culture media containing the samples were exchanged 4, 7 and 9 days later). […] So as to evaluate the effect on inhibiting vascularization, the formed lumen-like network structure was observed.
Photographs of the vascular tube tissues were incorporated as digital data, to measure the area of a vascular tube region (black region) at several points randomly selected to determine the effect on inhibiting vascularization.
VEGF-A as a vascularization-promoting factor was added at an amount of 5 ng/ml (as the final concentration) Suramin as a positive control with an observed effect on inhibiting vascularization was added at an amount of 25 μM (as the final concentration)
as §1, with “μg/ml as shown in Table 4 (the contents of test samples for assessing vascularization inhibitory effect).” for “μg/ml.”
as §2, with “Regarding” for “So as to evaluate”, “evaluated.” for “observed.”
Photographs of blood tube tissues were incorporated as digital data, to measure the area of the blood tube region (black part) at several positions randomly selected, to determine the inhibitory effect of vascularization.

Q: With Cc1ccc(C(=O)Nc2ccc(S(=O)(=O)O)c3cc(S(=O)(=O)O)cc(S(=O)(=O)O)c23)cc1NC(=O)c1cccc(NC(=O)Nc2cccc(C(=O)Nc3cc(C(=O)Nc4ccc(S(=O)(=O)O)c5cc(S(=O)(=O)O)cc(S(=O)(=O)O)c45)ccc3C)c2)c1 [Suramin, suramin] as the compound, how does the AREA [1] read?
A: The AREA was 30401.

Q: And the JOINT [1]?
A: Its JOINT is 413.

Q: And the LENGTH [1]?
A: Its LENGTH is 6396.

Q: And the JOINT ([2]; listed as A3)?
A: The JOINT was 11.

Q: And the LENGTH ([2]; listed as A3)?
A: Its LENGTH is 4583.

Q: And the PATH ([2]; listed as A3)?
A: Its PATH is 107.

Q: What about the JOINT ([2]; listed as A4) of the same compound?
A: Its JOINT is 16.

Q: And the LENGTH ([2]; listed as A4)?
A: The LENGTH was 5311.

Q: What about the PATH ([2]; listed as A4) of the same compound?
A: Its PATH is 128.

Q: What about the “AREA (area of vascular tube region)” value ([2]; listed as A3) of the same compound?
A: The value was 27940.

Q: And the “AREA (area of vascular tube region)” value ([2]; listed as A4)?
A: Its value is 33301.
